Measurements published in the supplement of paper PMC10307832.

How the values were obtained:
Experiment in all cases: relative viability (nuclei count vs DMSO), 5 days (fraction); higher = more cells survive
Crenolanib + Linsitinib = compound: CC1(COc2ccc3c(c2)ncn3-c2ccc3cccc(N4CCC(N)CC4)c3n2)COC1 [Crenolanib] + C[C@]1(O)C[C@@H](c2nc(-c3ccc4ccc(-c5ccccc5)nc4c3)c3c(N)nccn32)C1 [Linsitinib] (partner 1 µM)
Outline: (§1)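 Medians of duplicate plates are given as relative viability. That measure is the nuclei count in treated wells divided by the count in vehicle wells. Counts were taken on 4× images of lung cancer cell lines in 1536-well plates, 5 days after pin-tool dosing the day after seeding with one drug alone or a fixed anchor-drug dose plus five library-drug doses (not always all listed) in √10 steps.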

Crenolanib + Foretinib = compound: CC1(COc2ccc3c(c2)ncn3-c2ccc3cccc(N4CCC(N)CC4)c3n2)COC1 [Crenolanib] + COc1cc2c(Oc3ccc(NC(=O)C4(C(=O)Nc5ccc(F)cc5)CC4)cc3F)ccnc2cc1OCCCN1CCOCC1 [Foretinib] (partner 0.25 µM)
Outline: as §1

Tivantinib + Pictilisib = compound: O=C1NC(=O)[C@@H](c2cn3c4c(cccc24)CCC3)[C@@H]1c1c[nH]c2ccccc12 [Tivantinib] + CS(=O)(=O)N1CCN(Cc2cc3nc(-c4cccc5[nH]ncc45)nc(N4CCOCC4)c3s2)CC1 [Pictilisib] (partner 1 µM)
Outline: as §1

Crenolanib + Crizotinib = compound: CC1(COc2ccc3c(c2)ncn3-c2ccc3cccc(N4CCC(N)CC4)c3n2)COC1 [Crenolanib] + C[C@@H](Oc1cc(-c2cnn(C3CCNCC3)c2)cnc1N)c1c(Cl)ccc(F)c1Cl [Crizotinib] (partner 1 µM)
Outline: as §1

Row | Cell Line | relative viability (Crenolanib + Linsitinib; first compound 0.01 µM) | relative viability (Crenolanib + Linsitinib; first compound 0.03162 µM) | relative viability (Crenolanib + Linsitinib; first compound 0.1 µM) | relative viability (Crenolanib + Linsitinib; first compound 0.3162 µM) | relative viability (Crenolanib + Linsitinib; first compound 1 µM) | relative viability (Crenolanib + Foretinib; first compound 0.01 µM) | relative viability (Crenolanib + Foretinib; first compound 0.03162 µM) | relative viability (Crenolanib + Foretinib; first compound 0.1 µM) | relative viability (Crenolanib + Foretinib; first compound 0.3162 µM) | relative viability (Crenolanib + Foretinib; first compound 1 µM) | relative viability (Tivantinib + Pictilisib; first compound 0.01 µM) | relative viability (Tivantinib + Pictilisib; first compound 0.03162 µM) | relative viability (Tivantinib + Pictilisib; first compound 0.1 µM) | relative viability (Tivantinib + Pictilisib; first compound 0.3162 µM) | relative viability (Crenolanib + Crizotinib; first compound 0.01 µM) | relative viability (Crenolanib + Crizotinib; first compound 0.03162 µM) | relative viability (Crenolanib + Crizotinib; first compound 0.1 µM) | relative viability (Crenolanib + Crizotinib; first compound 0.3162 µM) | relative viability (Crenolanib + Crizotinib; first compound 1 µM)
1 | BEN | 1.03 | 0.895 | 0.83 | 0.848 | 0.911 | 0.84 | 0.44 | 0.659 | 0.819 | 0.656 | 0.703 | 0.41 | 0.501 | 0.432 | 0.89 | 0.839 | 0.863 | 0.763 | 0.847
2 | EMC-BAC-2 | 0.826 | 0.874 | 0.805 | 0.821 | 0.808 | 1.05 | 0.997 | 1.03 | 1.11 | 1.07 | 0.562 | 0.511 | 0.567 | 0.527 | 0.757 | 0.774 | 0.795 | 0.791 | 0.775
3 | LXF-289 | 0.974 | 1.02 | 0.955 | 1.02 | 0.972 | 1.02 | 0.971 | 0.942 | 0.989 | 0.977 | 0.815 | 0.769 | 0.703 | 0.817 | 0.81 | 0.745 | 0.777 | 0.753 | 0.81
4 | ABC-1 | 0.79 | 0.797 | 0.946 | 1.19 | 1.04 | 1.43 | 0.889 | 1.13 | 1.12 | 1.46 | 0.802 | 0.51 | 0.681 | 0.731 | 1.01 | 0.883 | 1.13 | 1.01 | 1.19
5 | NCI-H2170 |  |  |  |  |  | 0.961 | 0.989 | 0.719 | 0.99 | 1.02 | 0.298 | 0.222 | 0.33 |  | 1.21 | 1.18 | 1.19 | 1.18 | 1.17
6 | NCI-H1355 | 0.857 | 0.848 | 0.773 | 0.947 | 0.809 | 1.02 | 1 | 0.94 | 1.07 | 0.906 | 0.401 | 0.356 | 0.426 | 0.38 | 1.15 | 1.07 | 0.973 | 1.06 | 0.894
7 | EBC-1 | 0.946 | 0.832 | 0.85 | 0.978 | 0.996 | 0.102 | 0.104 | 0.0945 | 0.106 | 0.115 | 0.492 | 0.444 | 0.471 | 0.345 | 0.18 | 0.198 | 0.188 | 0.134 | 0.197
8 | NCI-H2405 | 1.15 | 0.923 | 0.661 | 0.794 | 0.859 | 1.16 | 1.05 |  | 1.02 | 1.06 | 0.509 | 0.43 | 0.381 | 0.4 | 0.899 | 0.94 | 0.623 | 0.809 | 0.837
9 | NCI-H2009 | 1.23 | 1.2 | 1.2 | 1.21 | 1.19 | 1.25 | 1.21 | 1.09 | 1.27 | 1.1 | 0.875 | 0.464 | 0.767 | 0.763 | 1.07 | 1.01 | 1.01 | 1.06 | 0.815
